Experimental data published in publication PMC2840614 (Bioorganic & medicinal chemistry letters, 2010).
Numbered stars: 1 amine (or outer) side, 2 acyl side, 3 side chain; on linkers, the order of the positions; unused ones are H or OH. Bridge positions count the residues as written; N and C are the ends. Square brackets hold non-standard residues; d marks the D form. Peptide text beside a SMILES is read from it. I, II: the chains in the order shown. Dmt = Cc1cc(O)cc(C)c1C[C@H](N)C(=O)O; Ethylenediamine = C(CN[*:2])N[*:1]; Tic = O=C(O)[C@@H]1Cc2ccccc2CN1

Columns and labels:
[1] = molecular target: T1, δ-opioid receptor (Mus musculus, UniProt P32300); details: δ-antagonism in vitro; cited from earlier work
T1 sequence (P32300 whole entry): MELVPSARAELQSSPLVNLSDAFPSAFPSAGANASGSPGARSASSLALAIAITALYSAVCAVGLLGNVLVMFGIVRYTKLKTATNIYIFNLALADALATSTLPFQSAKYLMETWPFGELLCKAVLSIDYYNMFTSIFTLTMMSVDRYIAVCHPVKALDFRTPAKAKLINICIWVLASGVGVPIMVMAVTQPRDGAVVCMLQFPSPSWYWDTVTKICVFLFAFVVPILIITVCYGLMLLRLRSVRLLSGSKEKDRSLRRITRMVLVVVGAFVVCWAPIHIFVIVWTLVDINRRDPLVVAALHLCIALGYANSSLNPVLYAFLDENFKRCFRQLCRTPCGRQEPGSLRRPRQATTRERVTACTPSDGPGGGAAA

[2] = tested on: μ-opioid receptor; details: μ-antagonism in vitro; cited from earlier work
[3] = molecular target: μ-opioid receptor (MOR) (Rattus norvegicus, UniProt P33535); details: cited from earlier work; for Selectivity Kiδ/Kiμ: ratio of binding Ki values; for Ki: read-out: Receptor affinity Ki μ, rat brain membranes
μ-opioid receptor (MOR), sequence (P33535 whole entry): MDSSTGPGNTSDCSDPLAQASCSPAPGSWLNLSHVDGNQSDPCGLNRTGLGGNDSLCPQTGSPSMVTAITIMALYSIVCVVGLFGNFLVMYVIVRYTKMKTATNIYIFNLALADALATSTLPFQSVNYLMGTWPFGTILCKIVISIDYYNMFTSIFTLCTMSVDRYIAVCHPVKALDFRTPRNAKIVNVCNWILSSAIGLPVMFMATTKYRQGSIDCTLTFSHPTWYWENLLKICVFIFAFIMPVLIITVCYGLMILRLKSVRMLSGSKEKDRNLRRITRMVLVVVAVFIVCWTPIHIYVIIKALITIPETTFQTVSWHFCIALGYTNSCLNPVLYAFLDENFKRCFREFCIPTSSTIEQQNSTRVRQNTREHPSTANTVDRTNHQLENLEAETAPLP

[4] = molecular target: T1, δ-opioid receptor; details: read-out: MVD IC50; agonism, mouse vas deferens; cited from earlier work
[5] = molecular target: μ-opioid receptors (Cavia porcellus, UniProt A0ACM8Q262); details: read-out: GPI IC50; agonism, guinea pig ileum; cited from earlier work
μ-opioid receptors, sequence (A0ACM8Q262 1-400): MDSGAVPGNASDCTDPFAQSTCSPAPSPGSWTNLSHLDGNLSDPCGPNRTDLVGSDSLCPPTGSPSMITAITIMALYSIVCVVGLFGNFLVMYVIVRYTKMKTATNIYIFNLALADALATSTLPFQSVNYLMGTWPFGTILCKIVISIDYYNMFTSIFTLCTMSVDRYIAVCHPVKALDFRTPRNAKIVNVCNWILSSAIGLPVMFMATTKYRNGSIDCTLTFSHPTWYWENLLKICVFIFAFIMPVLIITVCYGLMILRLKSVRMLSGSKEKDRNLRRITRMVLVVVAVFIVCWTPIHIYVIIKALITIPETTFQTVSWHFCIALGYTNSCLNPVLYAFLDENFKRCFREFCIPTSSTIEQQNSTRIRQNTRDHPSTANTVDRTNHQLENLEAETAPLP

[6] = molecular target: δ-opioid receptor (DOR) (Rattus norvegicus, UniProt P33533); details: cited from earlier work; for Ki: read-out: Receptor affinity Ki δ, rat brain membranes
δ-opioid receptor (DOR), sequence (P33533 whole entry): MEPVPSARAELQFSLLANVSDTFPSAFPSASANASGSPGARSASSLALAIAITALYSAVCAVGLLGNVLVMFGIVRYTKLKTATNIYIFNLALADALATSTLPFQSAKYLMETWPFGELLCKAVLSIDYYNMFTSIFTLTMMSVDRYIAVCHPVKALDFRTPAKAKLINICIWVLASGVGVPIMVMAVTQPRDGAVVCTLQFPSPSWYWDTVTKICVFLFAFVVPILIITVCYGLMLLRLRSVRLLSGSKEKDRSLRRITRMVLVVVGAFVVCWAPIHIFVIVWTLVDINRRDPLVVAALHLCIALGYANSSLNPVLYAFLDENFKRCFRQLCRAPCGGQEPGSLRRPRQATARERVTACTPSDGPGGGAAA

[7] = molecular target: T1, δ-opioid receptor; test: Effect on deltorphin C stimulated GTPγS binding in NG108-15 cell membranes; assay type: biochemical; details: for GTPγS (pA2)δ: antagonism of deltorphin C stimulated GTPγS binding, NG108-15 cell membranes, NA: not active (>20.000nM)

Cc1cc(O)cc(C)c1CC(N)C(=O)N1Cc2ccccc2CC1C(=O)NCCCCCCNC(=O)C1Cc2ccccc2CN1C(=O)C(N)Cc1c(C)cc(O)cc1C (stereo not drawn) [1,6-bis[H-Dmt-Tic-NH]hexane]
pA2 δ [1]: 10.62

Cc1cc(O)cc(C)c1CC(N)C(=O)N1Cc2ccccc2CC1C(=O)NCCCCNC(=O)C1Cc2ccccc2CN1C(=O)C(N)Cc1c(C)cc(O)cc1C (stereo not drawn) [butylene-bis[Dmt-Tic-NH]]
pA2 δ [1]: 10.51
pA2 μ [2]: 6.99

Cc1cc(O)cc(C)c1C[C@H](N)C(=O)N[C@H]1Cc2ccccc2CN(CC(=O)NCc2ccccc2)C1=O [compound 6, H-Dmt-Aba-Gly-NH-Bn]
Selectivity Kiδ/Kiμ [3]: 24
Ki [3]: 0.46 ± 0.07 nM
IC50 [4]: 830 ± 70 nM
IC50 [5]: 51 ± 5 nM
Ki [6]: 11 ± 2.3 nM

Cc1cc(O)cc(C)c1C[C@H](N)C(=O)N[C@@H]1Cc2c([nH]c3ccccc23)CN(CC(=O)NCc2ccccc2)C1=O [compound 7, H-Dmt-D-Aia-Gly-NH-Bn]
Selectivity Kiδ/Kiμ [3]: 48
Ki [3]: 3.35 ± 0.28 nM
IC50 [4]: 1500 ± 139 nM
IC50 [5]: 14.9 ± 1.6 nM
Ki [6]: 160 ± 23 nM

Cc1cc(O)cc(C)c1C[C@@H](C(=O)N[C@H]1Cc2c([nH]c3ccccc23)CN(CC(=O)O)C1=O)N(C)C [compound 8, Me2Dmt-Aia-Gly-OH]
Ki [3]: 874 ± 100 nM
Selectivity Kiμ/Kiδ ([6]; ratio of binding Ki values): 132
Ki [6]: 6.64 ± 0.89 nM

Cc1cc(O)cc(C)c1C[C@H](N)C(=O)N1Cc2ccccc2C[C@H]1C(=O)NCCNC(=O)[C@@H]1Cc2ccccc2CN1C(=O)[C@@H](N)Cc1c(C)cc(O)cc1C [compound 9, ethylene-bis(H-Dmt-Tic-NH)] (I: H-[Dmt]-[Tic] / II: H-[Dmt]-[Tic]; linker I:C-II:C via Ethylenediamine)
Kb [7]: 0.912 nM
GTPγS (pA2)δ [7]: 9.04

Cc1cc(O)cc(C)c1C[C@H](N)C(=O)N[C@@H]1Cc2c([nH]c3ccccc23)CN(CC(=O)NCCNC(=O)CN2Cc3[nH]c4ccccc4c3C[C@@H](NC(=O)[C@@H](N)Cc3c(C)cc(O)cc3C)C2=O)C1=O [compound 11, ethylene-bis(H-Dmt-D-Aia-Gly-NH)]
GTPγS (pA2)δ [7]: unable to diminish the GTPγS binding

Cc1cc(O)cc(C)c1C[C@H](N)C(=O)N1Cc2ccccc2C[C@H]1C(=O)NCCN(CCNC(=O)[C@@H]1Cc2ccccc2CN1C(=O)[C@@H](N)Cc1c(C)cc(O)cc1C)CCNC(=O)[C@@H]1Cc2ccccc2CN1C(=O)[C@@H](N)Cc1c(C)cc(O)cc1C [compound 15, tris-[H-Dmt-Tic-NH-ethylene]-N]
Kb [7]: 2.29 nM

Cc1cc(O)cc(C)c1C[C@H](N)C(=O)N[C@H]1Cc2ccccc2CN(CC(=O)NCCN(CCNC(=O)CN2Cc3ccccc3C[C@H](NC(=O)[C@@H](N)Cc3c(C)cc(O)cc3C)C2=O)CCNC(=O)CN2Cc3ccccc3C[C@H](NC(=O)[C@@H](N)Cc3c(C)cc(O)cc3C)C2=O)C1=O [compound 16, tris-[H-Dmt-Aba-Gly-NH-ethylene]-N]
Kb [7]: 22.9 nM
